Results from PubChem BioAssay AID2060485 (Molecular Pharmacology Branch, DTP, NCI, 2025).

System: A375 multi-cell spheroids with HUVEC/MSC, viability
Assay: Anticancer human tumor A375 cell line growth inhibition [GQUAD];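 further: spheroids exposed to compounds for seven days before readout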
Settings: for IC50: curve of first compound; for viability, T/C: stronger effect = lower value
In short: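 Tumor cells were grown as complex spheroids with HUVEC endothelial cells and mesenchymal stem cells as stroma. G-quadruplex stabilizers were combined with targeted agents over half-log dilutions from near the clinical Cmax, or from 10 microM.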

[1] = second compound 0.0316 µM, first compound 0.000999 µM
[2] = second compound 0.0316 µM, first compound 0.00316 µM
[3] = second compound 0.0316 µM, first compound 0.00999 µM
[4] = second compound 0.0316 µM, first compound 0.0316 µM
[5] = second compound 0.0316 µM, first compound 0.0999 µM
[6] = second compound 0.0316 µM, first compound 0.316 µM
[7] = second compound 0.1 µM, first compound 0.000999 µM
[8] = second compound 0.1 µM, first compound 0.00316 µM
[9] = second compound 0.1 µM, first compound 0.00999 µM
[10] = second compound 0.1 µM, first compound 0.0316 µM
[11] = second compound 0.1 µM, first compound 0.0999 µM
[12] = second compound 0.1 µM, first compound 0.316 µM
[13] = second compound 0.316 µM, first compound 0.000999 µM
[14] = second compound 0.316 µM, first compound 0.00316 µM
[15] = second compound 0.316 µM, first compound 0.00999 µM
[16] = second compound 0.316 µM, first compound 0.0316 µM
[17] = second compound 0.316 µM, first compound 0.0999 µM
[18] = second compound 0.316 µM, first compound 0.316 µM
[19] = second compound 1 µM, first compound 0.000999 µM
[20] = second compound 1 µM, first compound 0.00316 µM
[21] = second compound 1 µM, first compound 0.00999 µM
[22] = second compound 1 µM, first compound 0.0316 µM
[23] = second compound 1 µM, first compound 0.0999 µM
[24] = second compound 1 µM, first compound 0.316 µM
[25] = second compound 3.16 µM, first compound 0.000999 µM
[26] = second compound 3.16 µM, first compound 0.00316 µM
[27] = second compound 3.16 µM, first compound 0.00999 µM
[28] = second compound 3.16 µM, first compound 0.0316 µM
[29] = second compound 3.16 µM, first compound 0.0999 µM
[30] = second compound 3.16 µM, first compound 0.316 µM
[31] = second compound 10 µM, first compound 0.000999 µM
[32] = second compound 10 µM, first compound 0.00316 µM
[33] = second compound 10 µM, first compound 0.00999 µM
[34] = second compound 10 µM, first compound 0.0316 µM
[35] = second compound 10 µM, first compound 0.0999 µM
[36] = second compound 10 µM, first compound 0.316 µM

## CC[C@@]1(O)C(=O)OCc2c1cc1n(c2=O)Cc2cc3c(CN(C)C)c(O)ccc3nc2-1 + Cc1[nH]c2ccc(F)cc2c1-c1nc2c3cccnc3c3ncccc3c2[nH]1
Second compound 0.0316 µM
  IC50: 52.8 nM
Second compound 0.1 µM
  IC50: 53.8 nM
Second compound 0.316 µM
  IC50: 52.4 nM
Second compound 1 µM
  IC50: 46.9 nM
Second compound 3.16 µM
  IC50: 38.4 nM
Second compound 10 µM
  IC50: 46.1 nM
[1]
  viability, T/C: 109%
[2]
  viability, T/C: 110%
[3]
  viability, T/C: 109%
[4]
  viability, T/C: 71.6%
[5]
  viability, T/C: 23.4%
[6]
  viability, T/C: 12.9%
[7]
  viability, T/C: 98.5%
[8]
  viability, T/C: 105%
[9]
  viability, T/C: 111%
[10]
  viability, T/C: 73.3%
[11]
  viability, T/C: 23.7%
[12]
  viability, T/C: 14%
[13]
  viability, T/C: 109%
[14]
  viability, T/C: 108%
[15]
  viability, T/C: 114%
[16]
  viability, T/C: 69.9%
[17]
  viability, T/C: 25.9%
[18]
  viability, T/C: 13.6%
[19]
  viability, T/C: 118%
[20]
  viability, T/C: 107%
[21]
  viability, T/C: 125%
[22]
  viability, T/C: 65.4%
[23]
  viability, T/C: 27.4%
[24]
  viability, T/C: 13.8%
[25]
  viability, T/C: 92.7%
[26]
  viability, T/C: 88.1%
[27]
  viability, T/C: 86.4%
[28]
  viability, T/C: 51.6%
[29]
  viability, T/C: 30.7%
[30]
  viability, T/C: 16.3%
[31]
  viability, T/C: 92.2%
[32]
  viability, T/C: 101%
[33]
  viability, T/C: 105%
[34]
  viability, T/C: 62.9%
[35]
  viability, T/C: 26.1%
[36]
  viability, T/C: 14.6%

## Cn1ncnc1[C@H]1c2n[nH]c(=O)c3cc(F)cc(c23)N[C@@H]1c1ccc(F)cc1 + CN(C)c1ccc(Nc2c3ccc(NC(=O)CCN4CCCC4)cc3nc3cc(NC(=O)CCN4CCCC4)ccc23)cc1
Second compound 0.0316 µM
  IC50: > 316 nM
Second compound 0.1 µM
  IC50: > 316 nM
Second compound 0.316 µM
  IC50: > 316 nM
Second compound 1 µM
  IC50: > 316 nM
Second compound 3.16 µM
  IC50: > 316 nM
Second compound 10 µM
  IC50: > 316 nM
[1]
  viability, T/C: 96.8%
[2]
  viability, T/C: 104%
[3]
  viability, T/C: 105%
[4]
  viability, T/C: 104%
[5]
  viability, T/C: 105%
[6]
  viability, T/C: 97.1%
[7]
  viability, T/C: 102%
[8]
  viability, T/C: 102%
[9]
  viability, T/C: 97.2%
[10]
  viability, T/C: 101%
[11]
  viability, T/C: 103%
[12]
  viability, T/C: 84.7%
[13]
  viability, T/C: 115%
[14]
  viability, T/C: 93.6%
[15]
  viability, T/C: 101%
[16]
  viability, T/C: 110%
[17]
  viability, T/C: 107%
[18]
  viability, T/C: 98.8%
[19]
  viability, T/C: 111%
[20]
  viability, T/C: 105%
[21]
  viability, T/C: 101%
[22]
  viability, T/C: 110%
[23]
  viability, T/C: 116%
[24]
  viability, T/C: 110%
[25]
  viability, T/C: 107%
[26]
  viability, T/C: 98%
[27]
  viability, T/C: 99.8%
[28]
  viability, T/C: 105%
[29]
  viability, T/C: 106%
[30]
  viability, T/C: 106%
[31]
  viability, T/C: 98.3%
[32]
  viability, T/C: 97.5%
[33]
  viability, T/C: 97.1%
[34]
  viability, T/C: 107%
[35]
  viability, T/C: 104%
[36]
  viability, T/C: 97.9%

## COc1ccc([C@@H](O)c2cc(-c3ncnc4cc(N5CCOCC5)ccc34)c(F)cc2Cl)nn1 + CN(C)c1ccc(Nc2c3ccc(NC(=O)CCN4CCCC4)cc3nc3cc(NC(=O)CCN4CCCC4)ccc23)cc1
Second compound 0.0316 µM
  IC50: > 10000 nM
Second compound 0.1 µM
  IC50: > 10000 nM
Second compound 0.316 µM
  IC50: > 10000 nM
Second compound 1 µM
  IC50: > 10000 nM
Second compound 3.16 µM
  IC50: > 10000 nM
Second compound 10 µM
  IC50: > 10000 nM
[4]
  viability, T/C: 106%
Second compound 0.0316 µM, first compound 0.1 µM
  viability, T/C: 103%
[6]
  viability, T/C: 106%
Second compound 0.0316 µM, first compound 1 µM
  viability, T/C: 105%
Second compound 0.0316 µM, first compound 3.16 µM
  viability, T/C: 91.9%
Second compound 0.0316 µM, first compound 10 µM
  viability, T/C: 74.5%
[10]
  viability, T/C: 107%
Second compound 0.1 µM, first compound 0.1 µM
  viability, T/C: 111%
[12]
  viability, T/C: 100%
Second compound 0.1 µM, first compound 1 µM
  viability, T/C: 108%
Second compound 0.1 µM, first compound 3.16 µM
  viability, T/C: 95.6%
Second compound 0.1 µM, first compound 10 µM
  viability, T/C: 71.5%
[16]
  viability, T/C: 109%
Second compound 0.316 µM, first compound 0.1 µM
  viability, T/C: 101%
[18]
  viability, T/C: 104%
Second compound 0.316 µM, first compound 1 µM
  viability, T/C: 99.7%
Second compound 0.316 µM, first compound 3.16 µM
  viability, T/C: 93%
Second compound 0.316 µM, first compound 10 µM
  viability, T/C: 70.7%
[22]
  viability, T/C: 103%
Second compound 1 µM, first compound 0.1 µM
  viability, T/C: 101%
[24]
  viability, T/C: 108%
Second compound 1 µM, first compound 1 µM
  viability, T/C: 111%
Second compound 1 µM, first compound 3.16 µM
  viability, T/C: 97.6%
Second compound 1 µM, first compound 10 µM
  viability, T/C: 78.9%
[28]
  viability, T/C: 104%
Second compound 3.16 µM, first compound 0.1 µM
  viability, T/C: 99.3%
[30]
  viability, T/C: 106%
Second compound 3.16 µM, first compound 1 µM
  viability, T/C: 102%
Second compound 3.16 µM, first compound 3.16 µM
  viability, T/C: 90.5%
Second compound 3.16 µM, first compound 10 µM
  viability, T/C: 83.3%
[34]
  viability, T/C: 110%
Second compound 10 µM, first compound 0.1 µM
  viability, T/C: 93.6%
[36]
  viability, T/C: 98.5%
Second compound 10 µM, first compound 1 µM
  viability, T/C: 97.7%
Second compound 10 µM, first compound 3.16 µM
  viability, T/C: 77%
Second compound 10 µM, first compound 10 µM
  viability, T/C: 64.2%
